Data from PubChem BioAssay (NCI).
“And” between values parts separate entries of the source, which are not always exact repeats. Identical values can stand only once.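 Cells were grown in 96-well plates and exposed to each compound for 48 hours at five concentrations; endpoints were interpolated linearly between bracketing concentrations, or set to the highest concentration if not reached. The concentration for 50% growth inhibition is given as GI50. TGI: total growth inhibition.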 *1 amine or outer side, *2 acyl side, *3 side chain or, on linkers, in order; H or OH if unused. Where a SMILES comes first, the peptide text is derived from it. Bridges are numbered along the chain shown (N, C = ends). [ ]: non-standard residue; d: D form. ξ: configuration not given here. X4 = CCC(C)C(N[*:1])C(O)CC(=O)O[C@H](C(=O)C(C)C(=O)[*:2])C(C)C; NMeY = CN[C@@H](Cc1ccc(O)cc1)C(=O)O; ξNMeL = CNC(CC(C)C)C(=O)O; ξT = CC(O)C(N)C(=O)O

Key:
Test in all cases: inhibition of tumour cell growth, NCI panel, 48 h
SF-268 CNS = system: SF-268 CNS
UO-31 renal = system: UO-31 renal
MALME-3M melanoma = system: MALME-3M melanoma
NCI/ADR-RES ovarian = system: NCI/ADR-RES ovarian
MDA-N = system: MDA-N
NCI-H522 lung = system: NCI-H522 lung
HCC-2998 colon = system: HCC-2998 colon
K-562 leukemia = system: K-562 leukemia
DU-145 prostate = system: DU-145 prostate
OVCAR-8 ovarian = system: OVCAR-8 ovarian
HT29 colon = system: HT29 colon
SR leukemia = system: SR leukemia

Row | SMILES | TGI (SF-268 CNS) | TGI (UO-31 renal) | TGI (MALME-3M melanoma) [µM] | TGI (NCI/ADR-RES ovarian) | TGI (MDA-N) [µM] | TGI (NCI-H522 lung) [µM] | TGI (HCC-2998 colon) | TGI (K-562 leukemia) [µM] | TGI (DU-145 prostate) [µM] | TGI (OVCAR-8 ovarian) | TGI (HT29 colon) | TGI (SR leukemia) [µM] | GI50 (NCI/ADR-RES ovarian) [µM] | GI50 (SF-268 CNS) [µM] | GI50 (MALME-3M melanoma) [µM] | GI50 (K-562 leukemia) [µM] | GI50 (DU-145 prostate) [µM] | GI50 (OVCAR-8 ovarian) [µM] | GI50 (UO-31 renal) [µM] | GI50 (HCC-2998 colon) [µM]
1 | COC(=O)C(C)Sc1nc2cc(Cl)ccc2s1 (stereo not given) | > 100 µM | > 100 µM | > 100 | > 100 µM | > 100 | > 100 | > 100 µM | > 100 | > 100 | > 100 µM | > 100 µM |  |  |  |  |  |  |  |  | 
2 | N#CC1=CNc2sccc2S1(=O)=O | > 100 µM | > 100 µM | > 100 | > 100 µM | > 100 | > 100 | > 100 µM |  | > 100 | > 100 µM | > 100 µM |  |  |  |  |  |  |  |  | 
3 | OCCN=C1Nc2ccc(Cl)cc2C(=S)N2CSC[C@@H]12 | > 100 µM | > 100 µM | > 100 | > 100 µM |  | > 100 | > 100 µM | > 100 | > 100 | > 100 µM | > 100 µM | > 100 |  |  |  |  |  |  |  | 
4 | COc1ccc(CNc2nc(NCc3ccc(OC)cc3)nc(N3CCOCC3)n2)cc1 |  | > 100 µM | 5.84 | 13 µM |  | > 100 |  | 26.2 | > 100 | > 100 µM | 9.63 µM | 4.92 |  |  |  |  |  |  |  | 
5 | COc1cc(/C=C2/SC(c3ccccc3)N(c3cccc([N+](=O)[O-])c3)C2=O)cc(OC)c1OC (stereo not given) | > 100 µM | > 100 µM | > 100 | > 100 µM | 78.6 | > 100 | > 100 µM | > 100 | > 100 | > 100 µM |  |  |  |  |  |  |  |  |  | 
6 | COc1ccc(NC2Oc3cc4c(cc3C(c3cc(OC)c(O)c(OC)c3)C2C)OCO4)cc1 (stereo not given) | > 100 µM | 31.3 µM | 35.2 | 98 µM |  | 27.3 | 21.7 µM | 12.3 | > 100 | 67.7 µM | > 100 µM |  |  |  |  |  |  |  |  | 
7 | CCOC(=O)c1cn(-c2ccc(Cl)cc2)c(=O)n2c1nc1ccccc12 |  | > 100 µM |  | > 100 µM |  |  | > 100 µM | > 100 | > 100 | > 100 µM | > 100 µM | > 100 |  |  |  |  |  |  |  | 
8 | C=C1C[C@]23C[C@@]1(O)CC[C@H]2[C@@]12C=C[C@H](O)[C@@](C)(C(=O)O1)[C@H]2[C@@H]3C(=O)O | > 100 µM | > 100 µM | > 100 |  |  | > 100 | > 100 µM | > 100 |  |  | > 100 µM | > 100 |  |  |  |  |  |  |  | 
9 | CC(C)n1c(=O)n(-c2ccccc2)n(C(C)(C)C)c1=O |  | > 100 µM | > 100 | > 100 µM | > 100 |  | > 100 µM | > 100 |  | > 100 µM | > 100 µM | > 100 |  |  |  |  |  |  |  | 
10 | COS(=O)c1cc(Cl)cc(Cl)c1O (stereo not given) | > 100 µM | > 100 µM | > 100 |  |  | 36.3 | > 100 µM | > 100 |  |  | > 100 µM | > 100 |  |  |  |  |  |  |  | 
11 | CSC1SCC2C(=O)N(C)C3(CC3C)C(=O)OCC(NC(=O)c3nc4ccccc4cc3O)C(=O)NC(C)C(=O)N(C)C1C(=O)N(C)C1(CC1C)C(=O)OCC(NC(=O)c1nc3ccccc3cc1O)C(=O)NC(C)C(=O)N2C (stereo not given) | 0.00684 µM and 0.0159 µM | 0.0093 µM |  | 72.7 µM |  |  | < 0.0001 µM | < 0.0001 | > 100 |  | 4.21 µM | < 0.0001 | 0.124 |  |  |  |  |  |  | 
12 | COc1c/c(=C2/C=c3ccccc3=N2)[nH]/c1=C/c1[nH]c(C)cc1C | > 100 µM |  | 1.62 |  |  |  |  | 9.91 | > 100 | > 100 µM |  |  |  | 0.0309 | 0.277 | 0.152 | 0.15 | 0.0448 |  | 
13 | Cc1[nH]c(-c2ccccc2)c(-c2ccc(Cl)cc2)c1C(=O)ONC(=O)c1ccccc1 | 6.9 µM | 2.89 µM | 23.5 | 14.2 µM | 4.45 | 5.42 | 16.2 µM | 16.7 | 3.76 | 17 µM | 22.9 µM |  |  |  |  |  |  |  |  | 
14 | CCOC(=O)c1sc2c(c1OC(=O)c1ccccc1)c(=O)n(-c1ccccc1)c(=S)n2-c1ccccc1 | > 100 µM |  | 54.5 | 51 µM |  | 56.3 | 74.5 µM | > 100 | > 100 | > 100 µM | 38.1 µM |  |  |  |  |  |  |  |  | 
15 | O=C(N=Nc1ccccc1Br)NNc1ccccc1Br | > 100 µM | > 100 µM | > 100 |  | > 100 | > 100 | 56.6 µM | > 100 | > 100 | > 100 µM | > 100 µM | > 100 |  |  |  |  |  |  |  | 
16 | COc1ccc(-c2c(C#N)c(-c3ccccc3)n(NS(=O)(=O)c3ccccc3)c(=O)c2C#N)cc1 | > 100 µM |  | > 100 | > 100 µM | > 100 | 73.7 | > 100 µM | > 100 |  | > 100 µM | > 100 µM |  |  |  |  |  |  |  |  | 
17 | CCCCN(c1ccccc1)c1ncnc2c1cnn2C | > 100 µM | > 100 µM | 77.7 | 72.7 µM | > 100 | 53.6 | > 100 µM | > 100 | > 100 | > 100 µM | > 100 µM |  |  |  |  |  |  |  |  | 
18 | C/C=C/[C@H]1O[C@@](OC)([C@@H](C)[C@H](O)[C@H](C)[C@H]2OC(=O)/C(OC)=C/C(C)=C/[C@@H](C)[C@@H](O)[C@@H](C)[C@@H](O)[C@H](C)C/C(C)=C/C=C/[C@@H]2OC)CC(OC2CC(O)C(OC(N)=O)C(C)O2)[C@@H]1C (stereo not given in full) | 22.3 µM | < 0.01 µM | 0.305 | 19.4 µM | 0.0486 | 1.42 | 13.3 µM |  | 18.8 | 17.3 µM | 1.17 µM |  |  |  |  |  |  |  |  | 
19 | OC1OC(c2ccco2)C(F)(F)C(F)(F)C1(F)F (stereo not given) | > 100 µM | > 100 µM | > 100 | > 100 µM | > 100 |  |  | > 100 | > 100 | > 100 µM | > 100 µM |  |  |  |  |  |  |  |  | 
20 | CCC(C)C1NC(=O)C(NC(=O)C(CC(C)C)N(C)C(=O)[C@@H]2CCCN2)C(C)OC(=O)[C@H](Cc2ccc(OC)cc2)N(C)C(=O)[C@@H]2CCCN2C(=O)[C@H](CC(C)C)NC(=O)C(C)C(=O)[C@H](C(C)C)OC(=O)CC1O (stereo not given in full) (H-P[ξNMeL][ξT][X4]LP[NMeY](Me); ester 3-C) | 0.00314 µM and 0.0195 µM | 0.118 µM and 0.444 µM | 0.00847 | 0.78 µM and 3.74 µM | 0.0107 | 0.00653 | 0.0104 µM and 0.0108 µM |  |  | 0.0243 µM and 0.0387 µM | 0.0151 µM and 0.0127 µM | 7.45 | 0.233 |  |  |  |  |  | 0.0253 | 
21 | NC(CCCCNC(=O)OCc1ccccc1)C(=O)NC(CCCCNC(=O)OCc1ccccc1)C(=O)ON1C(=O)CCC1=O (stereo not given) |  | > 100 µM | > 100 |  | > 100 |  | > 100 µM | > 100 |  | > 100 µM | > 100 µM | > 100 |  |  |  |  |  |  |  | 
22 | COc1ccc(OC)c2cc(Cc3ccc(N(C)C)cc3)c(=O)c(Cc3ccc(N(C)C)cc3)cc12 | > 100 µM | > 100 µM | > 100 | > 100 µM | > 100 | 89.9 | > 100 µM | > 100 | > 100 | > 100 µM | > 100 µM |  |  |  |  |  |  |  |  | 
23 | CC[N+](C)(CC)CCN1C(=O)c2ccccc2S1(=O)=O | > 100 µM | > 100 µM | > 100 | > 100 µM |  | > 100 |  |  | > 100 | > 100 µM | > 100 µM |  |  |  |  |  |  |  |  | 
24 | O=[As](O)(O)c1cc(N=Nc2ccc(-c3ccc(N=Nc4cc([As](=O)(O)O)c(O)cc4O)cc3)cc2)c(O)cc1O | > 100 µM | > 100 µM | > 100 |  |  | > 100 | > 100 µM | > 100 |  | > 100 µM | > 100 µM | > 100 |  |  |  |  |  |  |  | 
25 | CC1=CC[C@@H]2CC[C@]3(C)[C@H](CC[C@@H]4[C@@]5(C)CCCNC(C)(C)[C@@H]5CC[C@]43C)[C@H]2[C@@H]1C | 3.71 µM | 2.82 µM | 3.48 | 3.52 µM |  |  |  |  | 3.55 |  |  |  | 1.84 | 1.97 | 1.77 |  | 1.98 |  | 1.47 | 
26 | CSc1nncc(-c2cc3c(c(SC)n2)CCC3)n1 | > 100 µM | > 100 µM |  | > 100 µM |  | > 100 |  |  | > 100 | 57.1 µM | > 100 µM |  |  |  |  |  |  |  |  | 
27 | CC[N+](CC)=c1ccc2nc3c(cc(N)c4ccccc43)oc-2c1 |  |  |  |  |  |  | 0.661 µM |  |  | 3.43 µM |  |  |  |  |  |  |  | 1.07 |  | 0.257
28 | N#Cc1c2c(c(N3CCOCC3)n3c1nc1ccccc13)CCCC2 | > 100 µM | 35.4 µM | 34 | 43.2 µM | 38.7 | 30.1 | 40.9 µM | > 100 | 37.2 | 43.4 µM | 38.6 µM |  |  |  |  |  |  |  |  | 
29 | CCOC(=O)C(C(=O)Cc1ccccc1)c1ccccc1 (stereo not given) | > 100 µM | > 100 µM | > 100 |  |  | > 100 |  | > 100 |  | > 100 µM | > 100 µM | > 100 |  |  |  |  |  |  |  | 
30 | COc1cc(C2C3=C(COC3=O)OC(C)(C)Oc3cc4c(cc32)OCO4)cc(OC)c1OC (stereo not given) | > 31.6 µM | 5.86 µM | > 100 |  | 3.56 | 30.1 | > 100 µM | > 36 |  | > 100 µM | 0.662 µM |  |  |  |  |  |  |  |  | 
